Source: publication PMC10762035, “Molecular basis of human trace amine-associated receptor 1 activation” (Nature Communications, 2024)
Positions count from the first letter of the chain named. Several values for one entry are separate records, joined by “and”; a condition that tells them apart may be missing. Identical values can stand only once. Like-named read-outs stand apart in the source and are kept apart here.

Columns and labels:
hTA1 C96S = molecular target: T1, hTA1 C96S (Homo sapiens, UniProt Q96RJ0, C96S); assay: GloSensor cAMP accumulation assay, C96S mutant; format: cell-based; conditions: log[Compound]
T1 construct: expressed in transfected cells; host or cells: HEK293T
T1 sequence (Q96RJ0 1-339 C96S): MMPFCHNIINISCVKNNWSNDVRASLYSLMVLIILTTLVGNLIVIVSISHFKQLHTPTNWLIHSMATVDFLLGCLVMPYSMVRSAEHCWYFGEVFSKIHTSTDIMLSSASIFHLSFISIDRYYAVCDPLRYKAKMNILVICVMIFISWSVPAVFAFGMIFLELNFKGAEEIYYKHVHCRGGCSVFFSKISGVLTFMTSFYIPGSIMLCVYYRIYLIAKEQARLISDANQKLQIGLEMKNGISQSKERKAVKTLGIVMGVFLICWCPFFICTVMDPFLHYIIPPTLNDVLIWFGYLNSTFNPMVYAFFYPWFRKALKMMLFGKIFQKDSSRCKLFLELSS

hTA1 F195T = molecular target: T2, hTA1 F195T (Homo sapiens, UniProt Q96RJ0, F195T); assay: GloSensor cAMP accumulation assay, F195T mutant; format: cell-based;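 also: cells transiently co-expressing HA-FLAG-tagged hTA1 and the GloSensor cAMP biosensor, luminescence read 30 min after agonist addition at room temperature, concentration-response fitted by nonlinear regression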
T2 construct: expressed in transfected cells; host or cells: HEK293T
T2 sequence (Q96RJ0 1-339 F195T): T1 sequence (Q96RJ0 1-339 C96S) with S96C, F195T

hTA1 R83H = molecular target: T3, hTA1 R83H (Homo sapiens, UniProt Q96RJ0, R83H); assay: GloSensor cAMP accumulation assay, R83H mutant; format: cell-based;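 also: cells transiently co-expressing hTA1 and a cAMP GloSensor, luminescence read 30 min after agonist addition at room temperature, concentration–response fitted by non-linear regression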
T3 construct: expressed in transfected cells; host or cells: HEK293T
T3 sequence (Q96RJ0 1-339 R83H): T1 sequence (Q96RJ0 1-339 C96S) with R83H, S96C

hTA1 C88S = molecular target: T4, hTA1 C88S (Homo sapiens, UniProt Q96RJ0, C88S); assay: GloSensor cAMP accumulation assay, C88S mutant; format: cell-based; conditions: C88S
T4 construct: expressed in transfected cells; host or cells: HEK293T
T4 sequence (Q96RJ0 1-339 C88S): T1 sequence (Q96RJ0 1-339 C96S) with C88S, S96C

hTA1 T194A = molecular target: T5, hTA1 T194A (Homo sapiens, UniProt Q96RJ0, T194A); assay: GloSensor cAMP accumulation assay, T194A mutant; conditions: for cAMP accumulation response, individual replicate values of the concentration-response curve: hTA1 T194A, log[Agonist], Supplementary Figure 5 source data
T5 sequence (Q96RJ0 1-339 T194A): T1 sequence (Q96RJ0 1-339 C96S) with S96C, T194A

SMILES: NCCc1ccc(O)cc1 [TYR, tyramine]
- Normalized Luminescence Counts (hTA1 C96S; C96S, M = -5, single replicates (N=2)): 1.4045 and 3.382 and -0.5726 and -0.7614 and 6.985 and 24.4145
- Normalized Luminescence Counts (hTA1 C96S; C96S, M = -5.522, single replicates (N=2)): 0.08646 and 2.064 and -0.5726 and 5.048 (2×) and 10.8582
- Normalized Luminescence Counts (hTA1 C96S; C96S, M = -6, single replicates (N=2)): -1.891 and 1.4045 and -2.55 and -0.7614 and 5.048 and -8.508
- Normalized Luminescence Counts (hTA1 C96S; C96S, M = -6.522, single replicates (N=2)): -0.5726 and -3.209 and -2.55 and -6.571 (2×) and -2.698
- Normalized Luminescence Counts (hTA1 C96S; C96S, M = -7, single replicates (N=2)): 0.08646 and 0.7455 and -2.55 and -0.7614 and -4.6346 and -2.698
- Normalized Luminescence Counts (hTA1 C96S; C96S, M = -7.522, single replicates (N=2)): -1.232 and -0.5726 and 0.7455 and 1.175 and -2.698 and 3.112
- Normalized Luminescence Counts (hTA1 C96S; C96S, M = -8, single replicates (N=2)): 2.064 and 0.7455 and -0.5726 and 3.112 and 24.4145 and -12.381
- Normalized Luminescence Counts (hTA1 C96S; C96S, M = -8.522, single replicates (N=2)): -1.891 and 0.08646 and -1.232 and 6.985 and 10.8582 and 12.7948
- Normalized Luminescence Counts (hTA1 C96S; C96S, M = -9, single replicates (N=2)): -1.232 and -0.5726 and -1.891 and 1.175 and -4.6346 and 6.985
- Normalized Luminescence Counts (hTA1 C96S; C96S, M = -9.522, single replicates (N=2)): -3.209 and -0.5726 and -3.868 and 8.922 and 55.4002 and 6.985
- Normalized Luminescence Counts (hTA1 C96S; C96S, M = -10, single replicates (N=2)): -1.232 and 0.08646 (2×) and 5.048 and 3.112 and 12.7948
- Normalized Luminescence Counts (hTA1 C96S; C96S, M = -10.522, single replicates (N=2)): -0.5726 and 2.064 and 0.08646 and 6.985 and -4.6346 and -0.7614
- Normalized Luminescence Counts (hTA1 C96S; C96S, M = -11, single replicates (N=2)): 0.7455 and 2.723 and -1.232 and 3.112 (2×) and 10.8582
- Normalized Luminescence Counts (hTA1 C96S; C96S, M = -11.522, single replicates (N=2)): -0.5726 and 3.382 and -2.55 and -8.508
- Normalized Luminescence Counts (hTA1 C96S; M = -11.522, single replicates, mutant block above C178S): -0.1784 and -0.1556 and -0.3377 and 0.3752 and 3.634 and 2.245
- Normalized Luminescence Counts (hTA1 C96S; M = -12, single replicates, mutant block above C178S): 0.04925 and -0.1556 and -0.3149 and 0.2684 and 2.352 and 1.711
- Normalized Luminescence Counts (hTA1 C96S; M = -12.522, single replicates, mutant block above C178S): -0.4515 and -0.588 and -0.5653 and 1.283 and 1.3903 and 1.07
- increase in potency vs wild type (hTA1 F195T; F195T): 26 fold
- EC50 (hTA1 F195T; F195T mutant, Figure 5B, each row one independent experiment (3 replicates), read-out: pEC50 values, Mean (converted)): 0.0102 µM and 0.0246 µM
- Emax values, Mean (hTA1 F195T; F195T mutant, Figure 5B, β-PEA = 100, each row one independent experiment (3 replicates)): 119.677 and 98.2455
- EC50 (hTA1 F195T; F195T, n=2, read-out: EC50): 0.00634 µM
- Emax (hTA1 F195T; F195T, n=2, read-out: Span ± SEM (Emax normalized to β-PEA)): 109%
- ΔEmax values (each mutant value - WT average) (hTA1 R83H; R83H mutant minus WT average): -13.6885
- EC50 (hTA1 R83H; R83H mutant, each line an independent experiment, 3 replicates, read-out: pEC50 values (Mean) (converted)): 5.33 µM
- Emax (hTA1 R83H; R83H mutant, β-PEA = 100, each line an independent experiment, 3 replicates, read-out: Emax values (Mean)): 85.3%
- EC50 (hTA1 R83H; R83H, n=2, read-out: EC50): 31.4 µM
- Emax values (hTA1 C88S; Mean of fit per experiment): 100.851
- Emax (hTA1 C88S; Mean of fit per experiment, read-out: Emax values): 118%
- EC50 (hTA1 C88S; Mean of fit per experiment, read-out: pEC50 values (converted)): 0.442 µM and 0.317 µM
- EC50 (hTA1 C88S; n=2, read-out: EC50): 0.375 µM
- Emax (hTA1 C88S; n=2, read-out: Span ± SEM (Emax normalized to β-PEA)): 109 ± 8.4%
- Emax values, Mean (hTA1 T194A; T149A (so in the source), single experiments (3 replicates each), β-PEA = 100): 107.638 and 114.006 and 104.682
- increase in potency vs wild type (hTA1 T194A; T194A): over 10 fold
- cAMP accumulation response, individual replicate values of the concentration-response curve (hTA1 T194A; M = -7.522): 49.8086 and 42.1239 and 66.6609 and 74.3619 and 75.9423 and 70.8058 and 84.4051 and 77.1239 and 72.2846
- cAMP accumulation response, individual replicate values of the concentration-response curve (hTA1 T194A; M = -8): 33.9 and 32.0125 and 38.7535 and 48.6794 and 43.1478 and 39.7894 and 64.0267 and 60.8745 and 66.5574
- cAMP accumulation response, individual replicate values of the concentration-response curve (hTA1 T194A; M = -8.522): 15.6995 and 22.1708 and 14.0817 and 16.28 and 19.441 and 18.4532 and 29.6632 and 30.1959 and 31.2615
- cAMP accumulation response, individual replicate values of the concentration-response curve (hTA1 T194A; M = -9): 1.409 and 7.206 and 6.936 and 8.575 and 6.7973 and 9.5631 and 13.5914 and 13.9909 and 14.0797
- cAMP accumulation response, individual replicate values of the concentration-response curve (hTA1 T194A; M = -9.522): 1.813 and 2.083 and -1.153 and 1.068 and 2.253 and 1.463 and 4.046 and 5.511 and 3.469
- cAMP accumulation response, individual replicate values of the concentration-response curve (hTA1 T194A; M = -10): -1.827 and -1.288 and -1.4224 and 2.056 (2×) and 1.661 and 1.693 and 1.604 and 1.782
- cAMP accumulation response, individual replicate values of the concentration-response curve (hTA1 T194A; M = -10.522): -1.827 and -0.7483 and -1.153 and 0.2779 and -0.3148 and -0.1172 and 1.027 and 0.8937 (2×)
- cAMP accumulation response, individual replicate values of the concentration-response curve (hTA1 T194A; M = -11): -0.4787 and -1.692 and -1.153 and 0.2779 and -1.105 and -1.303 and -0.971 and 0.4497 and 0.1834
- cAMP accumulation response, individual replicate values of the concentration-response curve (hTA1 T194A; M = -11.522): -1.557 and 0.8695 and -1.4224 and -1.105 (2×) and -0.7099 and 0.09457 and 0.05017 and 0.4053
- cAMP accumulation response, individual replicate values of the concentration-response curve (hTA1 T194A; M = -12): -0.7483 (2×) and -1.288 and -0.9074 (2×) and -0.3148 and -0.4826 and -0.1718 and -0.2162
- cAMP accumulation response, individual replicate values of the concentration-response curve (hTA1 T194A; M = -12.522): -0.07421 and 1.139 and 0.4651 and -1.105 (2×) and -0.5123 and -0.08302 and -0.2606 and 0.005772
- EC50 (hTA1 T194A; pEC50 values, Mean, T149A (so in the source), single experiments (3 replicates each)): 0.00801 µM and 0.0268 µM and 0.0143 µM
- EC50 (hTA1 T194A; pEC50 ± SEM, T194A): 0.0145 µM
- Emax (hTA1 T194A; read-out: Span ± SEM (Emax normalized to β-PEA), T194A): 109 ± 4.66%
